Reference: patent US7625913B2, “Pyrazole compounds useful as protein kinase inhibitors” (Vertex Pharmaceuticals Incorporated, priority 2000, dated 2009)

Key:
[1] = target: CDK-2/Cyclin A (Homo sapiens, UniProt P24941); assay: CDK-2 inhibition assay (coupled enzyme assay); type: biochemical; settings: 25 nM CDK-2/Cyclin A, 30° C.
Procedure: Compounds were screened in the following manner for their ability to inhibit CDK-2 using a standard coupled enzyme assay (Fox et al (1998) Protein Sci 7, 2249).
To an assay stock buffer solution containing 0.1M HEPES 7.5, 10 mM MgCl2, 1 mM DTT, 25 mM NaCl, 2.5 mM phosphoenolpyruvate, […], 30 mg/ml pyruvate kinase, 10 mg/ml lactate dehydrogenase, 100 mM ATP, and 100 μM peptide ([…], American Peptide, Sunnyvale, Calif.) was added a DMSO solution of a compound of the present invention to a final concentration of 30 μM. The resulting mixture was incubated at 30° C. for 10 min.
The reaction was initiated by the addition of 10 μL of CDK-2/Cyclin A stock solution to give a final concentration of 25 nM in the assay. The rates of reaction were obtained by monitoring absorbance at 340 nm over a 5-minute read time at 30° C. using a BioRad Ultramark plate reader (Hercules, Calif.). The Ki values were determined from the rate data as a function of inhibitor concentration.

[2] = target: T1, GSK-3β (AA 1-420) (Homo sapiens, UniProt P49841); assay: Ki determination for the inhibition of GSK-3 (coupled enzyme system); type: biochemical; settings: 20 μM ATP, 300 μM peptide, 20 nM GSK-3β, 30° C.
T1 construct: GSK-3β (AA 1-420)
T1 sequence (P49841 whole entry, the tested form may be a part): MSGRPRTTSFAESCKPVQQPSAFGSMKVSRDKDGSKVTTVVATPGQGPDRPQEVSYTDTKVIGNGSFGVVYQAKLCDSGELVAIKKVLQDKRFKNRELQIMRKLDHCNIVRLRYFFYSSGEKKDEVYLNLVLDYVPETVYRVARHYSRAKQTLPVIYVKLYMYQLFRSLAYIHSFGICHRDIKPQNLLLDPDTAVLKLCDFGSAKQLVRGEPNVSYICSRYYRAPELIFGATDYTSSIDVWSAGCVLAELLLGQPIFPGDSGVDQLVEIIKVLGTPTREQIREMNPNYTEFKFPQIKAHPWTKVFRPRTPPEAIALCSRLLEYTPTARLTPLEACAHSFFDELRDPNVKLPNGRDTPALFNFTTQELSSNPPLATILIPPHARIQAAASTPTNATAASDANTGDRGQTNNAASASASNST
Procedure: Reactions were carried out in a solution containing 100 mM HEPES (pH 7.5), 10 mM MgCl2, 25 mM NaCl, 300 μM NADH, 1 mM DTT and 1.5% DMSO. Final substrate concentrations in the assay were 20 μM ATP (Sigma Chemicals, St Louis, Mo.) and 300 μM peptide (HSSPHQS(PO3H2)EDEEE, American Peptide, Sunnyvale, Calif.). Reactions were carried out at 30° C. and 20 nM GSK-3β. Final concentrations of the components of the coupled enzyme system were 2.5 mM phosphoenolpyruvate, 300 μM NADH, 30 μg/ml pyruvate kinase and 10 μg/ml lactate dehydrogenase.
An assay stock buffer solution was prepared containing all of the reagents listed above with the exception of ATP and the test compound of interest. […] The reaction was initiated by the addition of 20 μl of ATP (final concentration 20 μM). Rates of reaction were obtained using a Molecular Devices Spectramax plate reader (Sunnyvale, Calif.) over 10 min at 30° C. The Ki values were determined from the rate data as a function of inhibitor concentration.

[3] = target: T2, Aurora-2 (Homo sapiens, UniProt O14965); assay: Ki determination for the inhibition of Aurora-2 (coupled enzyme assay); type: biochemical; settings: 70 nM Aurora-2, peptide LRRASLG, 30° C.
T2 sequence (O14965 1-403): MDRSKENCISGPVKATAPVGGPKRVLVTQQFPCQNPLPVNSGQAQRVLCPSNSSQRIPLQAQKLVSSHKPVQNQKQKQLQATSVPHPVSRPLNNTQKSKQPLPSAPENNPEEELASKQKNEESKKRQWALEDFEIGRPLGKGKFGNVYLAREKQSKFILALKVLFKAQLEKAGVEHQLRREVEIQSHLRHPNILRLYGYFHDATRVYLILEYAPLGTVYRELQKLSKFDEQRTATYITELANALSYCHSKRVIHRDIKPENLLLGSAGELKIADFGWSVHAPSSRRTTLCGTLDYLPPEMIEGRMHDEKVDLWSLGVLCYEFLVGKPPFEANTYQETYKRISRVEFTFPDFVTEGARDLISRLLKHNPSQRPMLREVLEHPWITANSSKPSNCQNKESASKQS
Procedure: To an assay stock buffer solution containing 0.1M HEPES 7.5, 10 mM MgCl2, 1 mM DTT, 25 mM NaCl, 2.5 mM phosphoenolpyruvate, […], 30 mg/ml pyruvate kinase, 10 mg/ml lactate dehydrogenase, 40 mM ATP, and 800 μM peptide (LRRASLG, American Peptide, Sunnyvale, Calif.) was added a DMSO solution of a compound of the present invention to a final concentration of 30 μM. The resulting mixture was incubated at 30° C. for 10 min. The reaction was initiated by the addition of 10 μL of Aurora-2 stock solution to give a final concentration of 70 nM in the assay. […] The Ki values were determined from the rate data as a function of inhibitor concentration.

COc1ccc2c(Nc3cc(C)n[nH]3)nc(Sc3ccc(NC(C)=O)cc3)nc2c1 [IIa-40, [2-(4-Acetamidophenylsulfanyl)-7-methoxy-quinazolin-4-yl]-(5-methyl-2H-pyrazol-3-yl)-amine]
melting point: 291 to 293 °C
Ki [1]: 1 to 20 µM
Ki [2]: 1 to 7 µM
Ki [3]: < 0.1 µM
